Where two headings read alike, the source gives them in different places.
What was measured:
TNF-α [1] = test: Inhibition of TNF-α production by stimulated human peripheral blood leukocytes in vitro; type: cell-based; conditions: Homo sapiens, Leukocyte, read-out: Percentage of inhibition of TNF-α production
Method in brief: (§1)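 Values are percentage inhibition of cytokine release versus stimulated leukocytes lacking compound. Human blood leukocytes received 50 μM or 10 μM compound for 2 h before overnight LPS, PMA or zymosan stimulation, and supernatants were assayed by ELISA.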

A549 = test: Cytotoxicity assay (MTT), A549 cell line; type: cell-based; conditions: 24 h
Description: (§2) To determine whether the anti-inflammatory activity of the test compounds was due to observed inhibition of cytokine production and inhibition of proliferation in vitro, and was not a consequence of cellular cytotoxicity, measurement of succinate dehydrogenase activity in living cells was performed. Cells were cultured for 24 h in RPM medium as described above at 37° C. the presence of the test compounds at concentrations of 50 μM and 12.5 μM. MTT [3-(4,5-dimethylthiazole-2-yl)-2,5-diphenyl tetrazolium bromide] (Promega, USA), a detection reagent, was then added and the cultures were incubated for 0.5-2 h. The amount of MTT-Formazan produced was determined using a spectrophotometer at 490 nm (Mosmann, J. Immunol. Methods, 1983, 65: 55-63).
(§3) The percentage of inhibition of cell growth was calculated using the following formula: % inhibition of cell growth=[…].

IL-1α = test: Inhibition of IL-1 production by stimulated human peripheral blood leukocytes in vitro; type: cell-based; conditions: Homo sapiens, Leukocyte, read-out: Percentage of inhibition of IL-1α production
Hep G2 = test: Cytotoxicity assay (MTT), Hep G2 cell line; type: cell-based; conditions: 24 h
Description: as §2, §3

IL-8 = test: Inhibition of IL-8 production by stimulated human peripheral blood leukocytes in vitro; type: cell-based; conditions: Homo sapiens, Leukocyte, read-out: Percentage of inhibition of IL-8 production
Method in brief: as §1

[2] = system: human peripheral blood mononuclear cells (PBMC); test: Effects on human T-cell proliferation in vitro (3H-thymidine incorporation); type: cell-based; conditions: Homo sapiens, PBMC, read-out: Percentage of inhibition of proliferation of stimulated PBMC
Description: The influence of the various test compounds at two different concentrations (50 μM and 10 μM) on cell proliferation of human peripheral blood mononuclear cells (PBMC) was assessed. […] The cells were pulsed with 1 μCi of ^3H-thymidine (Amersham, USA) per well during the last 18 h of the culture, and were harvested on the 96-well filter (Packard Bioscience, USA) using a multiple cell harvester (Packard, USA). The incorporation of ^3H-thymidine in activated cells were measured using TopCount NXT (Packard, USA). […] The positive control refers to LPS-, PMA- or zymosan-stimulated samples that were not treated with test compounds.

IL-6 = test: Inhibition of IL-6 production by stimulated human peripheral blood leukocytes in vitro; type: cell-based; conditions: Homo sapiens, Leukocyte, read-out: Percentage of inhibition of IL-6 production
Method in brief: as §1

TNF-α [3] = test: Lipopolysaccharide induced TNF-α production in Balb/cJ mice; type: in vivo; conditions: Mus musculus, ip, 1.5 h, read-out: % inhibition of TNF-α production (plasma)
Description: Male Balb/cJ mice (Iffa Credo, France) weighing 25-33 g were randomly grouped (n=7 in test group, 7 in positive control group, 4 in negative control group). Test compounds, as well as vehicle [0.125% carboxymethyl-cellulose (Sigma, USA)], were administered to the mice intraperitoneally. Test compounds were administered at a dose of 10 mg/kg of body weight, in a volume of 10 mL/kg of body weight. Thirty minutes later, a sterile solution of lipopolysaccharide (LPS) (Sigma, USA) in saline was intraperitoneally administered at a concentration and volume of 25 μg/0.2 mL/mouse to each animal, except those in negative control. Ninety minutes following administration, all animals were sacrificed by puncturing a. carotis communis. The plasma concentration of TNF-α was determined by sandwich ELISA, using capture and detection antibodies (R&D, USA) according to manufacturer's recommendations. Results are presented in the following table as percent of inhibition of TNF-α production in comparison to the positive control (stimulated, but untreated animals).

[4] = 10 mg/kg intraperitoneally, 30 min before LPS, 90 min after LPS

Structure (SMILES) | inhibition at 10 µM (TNF-α [1]; LPS-stimulated PBL) [%] | inhibition at 10 µM (TNF-α [1]; PMA-stimulated PBL) [%] | inhibition at 10 µM (TNF-α [1]; zymosan-stimulated PBL) [%] | inhibition at 50 µM (TNF-α [1]; LPS-stimulated PBL) [%] | inhibition at 50 µM (TNF-α [1]; PMA-stimulated PBL) [%] | inhibition at 50 µM (TNF-α [1]; zymosan-stimulated PBL) [%] | Percentage of inhibition of cell growth (A549; 12.5 μM) [%] | Percentage of inhibition of cell growth (A549; 50 μM) [%] | inhibition at 10 µM (IL-1α; LPS-stimulated PBL) [%] | inhibition at 10 µM (IL-1α; PMA-stimulated PBL) [%] | inhibition at 10 µM (IL-1α; zymosan-stimulated PBL) [%] | inhibition at 50 µM (IL-1α; LPS-stimulated PBL) [%] | inhibition at 50 µM (IL-1α; PMA-stimulated PBL) [%] | Percentage of inhibition of cell growth (Hep G2; 12.5 μM) [%] | Percentage of inhibition of cell growth (Hep G2; 50 μM) [%] | inhibition at 10 µM ([2]; PHA) [%] | inhibition at 50 µM ([2]; PHA) [%] | inhibition at 10 µM ([2]; PMA + iono.) [%] | inhibition at 50 µM ([2]; PMA + iono.) [%] | inhibition in vivo at 10 mg/kg (TNF-α [3]; [4]) [%] | other results
CC[C@H]1OC(=O)[C@H](C)[C@@H](O[C@H]2C[C@@](C)(OC)[C@@H](OC(=O)CCN(CC)CC)[C@H](C)O2)[C@H](C)[C@@H](O[C@@H]2O[C@H](C)C[C@H](N(C)C)[C@H]2O)[C@](C)(OC)C[C@@H](C)C(=O)[C@H](C)[C@H]2N(C)C(=O)O[C@]12C [Example 10, 11,12-(N-Methyl-carbamate)-11,12-dideoxy-4-O-(3-diethylaminopropionyl)-6-O-methyl-erythromycin A] | 49 | 41 | 14 | 86 | 62 | 72 | 12 | 6 | 44 | 30 | 48 | 41 | 0 | 0 | 5 | 71 | 98 | 3 | 100 | – | inhibition at 50 µM (IL-1α; zymosan-stimulated PBL): 49%; inhibition at 10 µM (IL-8; LPS-stimulated PBL): 27%; inhibition at 10 µM (IL-8; PMA-stimulated PBL): 0%; inhibition at 10 µM (IL-8; zymosan-stimulated PBL): 28%; inhibition at 50 µM (IL-8; LPS-stimulated PBL): 52%; inhibition at 50 µM (IL-8; PMA-stimulated PBL): 42%; inhibition at 50 µM (IL-8; zymosan-stimulated PBL): 36%; inhibition at 10 µM (IL-6; LPS-stimulated PBL): 14%; inhibition at 10 µM (IL-6; PMA-stimulated PBL): 12%; inhibition at 10 µM (IL-6; zymosan-stimulated PBL): 19%; inhibition at 50 µM (IL-6; LPS-stimulated PBL): 71%; inhibition at 50 µM (IL-6; PMA-stimulated PBL): 18%; inhibition at 50 µM (IL-6; zymosan-stimulated PBL): 39%
CC[C@H]1OC(=O)[C@H](C)[C@@H](O[C@H]2C[C@@](C)(OC)[C@@H](OCCCN(CC)CC)[C@H](C)O2)[C@H](C)[C@@H](O[C@@H]2O[C@H](C)C[C@H](N(C)C)[C@H]2O)[C@](C)(OC)C[C@@H](C)C(=O)N[C@H](C)[C@@H](O)[C@]1(C)O [Example 73, 4″-O-(3-Diethylaminopropyl)-6-O-methyl-9a-aza-9a-homoerythromycin A] | – | – | – | – | – | – | 0 | 0 | – | – | – | – | – | 0 | 0 | – | – | – | – | – | inhibition in vivo at 10 mg/kg (TNF-α [3]): 90%
CC[C@H]1OC(=O)[C@H](C)[C@@H](O[C@H]2C[C@@](C)(OC)[C@@H](OC(=O)CCN3CCN(CCCN(CC)CC)CC3)[C@H](C)O2)[C@H](C)[C@@H](O[C@@H]2O[C@H](C)C[C@H](N(C)C)[C@H]2O)[C@](C)(OC)C[C@@H](C)C(=O)N[C@H](C)[C@@H](O)[C@]1(C)O [Example 31] | – | – | – | – | – | – | 0 | 0 | – | – | – | – | – | 0 | 0 | 23 | 99 | 24 | 91 | 92 | –
CC[C@H]1OC(=O)[C@H](C)[C@@H](O[C@H]2C[C@@](C)(OC)[C@@H](OC(=O)CCN(CC)CC)[C@H](C)O2)[C@H](C)[C@@H](O[C@@H]2O[C@H](C)C[C@H](N(C)C)[C@H]2O)[C@](C)(O)C[C@@H](C)NC(=O)[C@H](C)[C@@H](O)[C@]1(C)O [Example 2, 4″-O-(3-Diethylamino-propionyl)-8a-aza-8a-homoerythromycin A] | – | – | – | – | – | – | 0 | 3 | – | – | – | – | – | 0 | 1 | 35 | 41 | 1 | 31 | 59 | –
CC[C@H]1OC(=O)[C@H](C)[C@@H](O[C@H]2C[C@@](C)(OC)[C@@H](OC(=O)CCN3CCN(CCN(CC)CC)CC3)[C@H](C)O2)[C@H](C)[C@@H](O[C@@H]2O[C@H](C)C[C@H](N(C)C)[C@H]2O)[C@](C)(OC)C[C@@H](C)C(=O)N[C@H](C)[C@@H](O)[C@]1(C)O [Example 14] | – | – | – | – | – | – | 4 | 0 | – | – | – | – | – | 0 | 0 | 23 | 99 | 24 | 91 | 96 | –
CC[C@H]1OC(=O)[C@H](C)[C@@H](O[C@H]2C[C@@](C)(OC)[C@@H](OC(=O)CCNC3CC3)[C@H](C)O2)[C@H](C)[C@@H](O[C@@H]2O[C@H](C)C[C@H](N(C)C)[C@H]2O)[C@](C)(OC)C[C@@H](C)C(=O)N[C@H](C)[C@@H](O)[C@]1(C)O [Example 40] | 67 | 55 | 60 | 82 | 77 | 76 | 0 | 0 | 0 | 0 | 1 | 28 | 0 | 2 | 2 | – | – | – | – | – | inhibition at 50 µM (IL-1α; zymosan-stimulated PBL): 55%; inhibition at 10 µM (IL-8; LPS-stimulated PBL): 24%; inhibition at 10 µM (IL-8; PMA-stimulated PBL): 31%; inhibition at 10 µM (IL-8; zymosan-stimulated PBL): 6%; inhibition at 50 µM (IL-8; LPS-stimulated PBL): 0%; inhibition at 50 µM (IL-8; PMA-stimulated PBL): 12%; inhibition at 50 µM (IL-8; zymosan-stimulated PBL): 0%; inhibition at 10 µM (IL-6; LPS-stimulated PBL): 7%; inhibition at 10 µM (IL-6; PMA-stimulated PBL): 0%; inhibition at 10 µM (IL-6; zymosan-stimulated PBL): 0%; inhibition at 50 µM (IL-6; LPS-stimulated PBL): 0%; inhibition at 50 µM (IL-6; PMA-stimulated PBL): 0%; inhibition at 50 µM (IL-6; zymosan-stimulated PBL): 0%

Reference: US8080529B2, “Macrolides with anti-inflammatory activity” (Glaxo Group Limited, priority 2005, dated 2011)
